Where “and” joins values, the source holds several entries; their conditions need not be identical. Equal entries are not always repeated.
How the values were obtained:
[1] = system: Spontaneous Hypertensive rats (SHR); assay: Rat telemetry, blood pressure and heart rate; assay type: in vivo
Text: (§1) Male Sprague Dawley (Taconic Biosciences) rats, Spontaneous Hypertensive rats (Charles River Laboratories, United States), and Dahl Salt Sensitive rats (Medical College of Wisconsin) were implanted with transmitters (HD S10; Data Science International) for collection of BP and heart rate (HR) data. The transmitters are capable of transmitting a BP signal via a pressure catheter inserted into the abdominal aorta. Initially, a baseline was established and recorded. Each rat was then removed from its recording cage and was dosed by p.o. gavage with vehicle or compound and the animals were then returned to the recording cage. Data sampling for BP and HR was carried out in intervals at selected time points for the duration of the experiment.
(§2) All data in this manuscript were presented as mean ± SEM with a significance level of p < 0.05, and n represents the number of individual animals. The significance of differences in concentration-response curves in the ear temperature and, myograft study were calculated using t-test, compare to the vehicle group. The EC50 was calculated using GraphPad Prism 8.3 using a 4-parameter logistic non-linear curve fit model. Single-dose rat telemetry data for normal and SHR rats and repeat-dose telemetry data in Dahls salt-sensitive rats were analyzed by two-way repeated measures ANOVA. Treatment group main effects were compared by Tukey’s HSD method. All telemetry data were analyzed with GraphPad Prism 8.3.

Sprague Dawley rats = assay: Rat telemetry, blood pressure and heart rate; assay type: in vivo
Text: as §1, §2

Dahl Salt Sensitive rats = assay: Rat telemetry, blood pressure and heart rate; assay type: in vivo
Text: as §1, §2

Human PDE1C = biological target: T1, Human PDE1C (Homo sapiens, UniProt Q14123); assay: PDE scintillation proximity enzyme assay; assay type: biochemical; conditions: geometric mean (SD, n)
T1 construct: made in house; host or cells: baculovirus-infected insect cells
T1 sequence (Q14123 whole entry): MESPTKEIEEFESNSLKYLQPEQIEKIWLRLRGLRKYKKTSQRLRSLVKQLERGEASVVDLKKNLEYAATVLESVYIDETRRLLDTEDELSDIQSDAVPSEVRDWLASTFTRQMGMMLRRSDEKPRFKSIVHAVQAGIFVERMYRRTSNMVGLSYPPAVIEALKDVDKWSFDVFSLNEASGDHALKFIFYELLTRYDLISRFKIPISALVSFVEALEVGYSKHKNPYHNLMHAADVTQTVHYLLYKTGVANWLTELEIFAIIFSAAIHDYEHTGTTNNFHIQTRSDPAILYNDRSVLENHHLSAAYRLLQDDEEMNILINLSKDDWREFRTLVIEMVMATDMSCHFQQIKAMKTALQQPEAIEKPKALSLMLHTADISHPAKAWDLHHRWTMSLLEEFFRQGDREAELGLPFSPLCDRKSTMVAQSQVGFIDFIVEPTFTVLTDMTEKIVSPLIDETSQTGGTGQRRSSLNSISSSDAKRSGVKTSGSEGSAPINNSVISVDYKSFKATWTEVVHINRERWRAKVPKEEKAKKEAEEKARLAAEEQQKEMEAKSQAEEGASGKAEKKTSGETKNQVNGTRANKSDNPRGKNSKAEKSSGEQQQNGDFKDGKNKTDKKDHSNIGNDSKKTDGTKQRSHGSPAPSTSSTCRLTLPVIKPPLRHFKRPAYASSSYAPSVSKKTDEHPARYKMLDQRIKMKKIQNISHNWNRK
Method: (§3) All PDE proteins were expressed in baculoviral infected insect cells using standard methods [pFastBac, pFastBac Dual (Invitrogen), pIEX4 (Novagen)]. See Supplementary Table 1 for DNA sequences, construct boundaries, affinity tags, and expression vectors. HIS6 tagged PDE proteins were purified using Ni-NTA agarose (Qiagen) followed by size exclusion chromatography on a Superdex 200 column (GE Healthcare) in storage buffer (20 mM Tris-HCl, pH 7.5, 150 mM NaCl, 10% Glycerol). FLAG-tagged PDE proteins including the PDE6A/6B heterodimer were purified using anti-FLAG M2-agarose (Sigma-Aldrich), after purification through NiNTA column chromatography and eluted in storage buffer (50 mM Tris-HCl, pH 7.5, 150 mM NaCl, 10% Glycerol, 0.1 mg/ml Flag peptide). All purified proteins were stored at −80°C in small aliquots.
(§4) All PDE enzyme activities were measured with a yittrium silicate based scintillation proximity assay that detects radioactive nucleotide monophosphates but not cyclic monophosphates. Assays are conducted in a total volume of 50 μl in 384 well plates (3706, Corning): comprised of 24 μl enzyme, 1 μl compound, and 25 μl of cyclic nucleotide. The general assay buffer consists of 50 mM Tris-HCl (pH 7.5) and 0.1% (w/v) bovine serum albumin (Fatty Acid Free, Sigma-Aldrich). Enzyme concentrations, substrate concentrations, and various PDE-specific buffer additives are described in Supplementary Table 1. Compounds to be tested are diluted in pure dimethyl sulfoxide (DMSO) using 10-point concentration-response curves, and 1 μl is acoustically dispensed into assay plates using the Echo555 (LabCyte). Maximal compound concentration in the reaction mixture is either 10 or 100 μM. Compounds at the appropriate concentration are pre-incubated with either of the PDE enzymes for 30 min before the reaction is started by the addition of substrate ([8-^3H]-cAMP, 20.7 Ci/mmol or [8-^3H]-cGMP; 6.5 Ci/mmol, Perkin Elmer). Reactions are allowed to proceed for 60 min at room temperature before quenching. Next, reactions are stopped by the addition of 400 μg/per well SPA beads (RPNQ0150, Perkin Elmer) and a potent non-selective PDE inhibitor to quench the reaction. Bead bound radioactivity (product) is quantified 12 h later a Microbeta counter (Perkin Elmer). Data is normalized to % inhibition using standard methods ([Campbell et al., 2004]), and IC50 values were plotted using PRISM (GraphPad Software) using the 4 parameter logistic equation ([Campbell et al., 2004]). Data for potency values are expressed as the geometric mean and arithmetic standard deviation.

Human PDE7B = biological target: T2, Human PDE7B (Homo sapiens, UniProt Q9NP56); assay: PDE scintillation proximity enzyme assay; assay type: biochemical; conditions: geometric mean (SD, n)
T2 construct: made in house; host or cells: baculovirus-infected insect cells
T2 sequence (Q9NP56 whole entry): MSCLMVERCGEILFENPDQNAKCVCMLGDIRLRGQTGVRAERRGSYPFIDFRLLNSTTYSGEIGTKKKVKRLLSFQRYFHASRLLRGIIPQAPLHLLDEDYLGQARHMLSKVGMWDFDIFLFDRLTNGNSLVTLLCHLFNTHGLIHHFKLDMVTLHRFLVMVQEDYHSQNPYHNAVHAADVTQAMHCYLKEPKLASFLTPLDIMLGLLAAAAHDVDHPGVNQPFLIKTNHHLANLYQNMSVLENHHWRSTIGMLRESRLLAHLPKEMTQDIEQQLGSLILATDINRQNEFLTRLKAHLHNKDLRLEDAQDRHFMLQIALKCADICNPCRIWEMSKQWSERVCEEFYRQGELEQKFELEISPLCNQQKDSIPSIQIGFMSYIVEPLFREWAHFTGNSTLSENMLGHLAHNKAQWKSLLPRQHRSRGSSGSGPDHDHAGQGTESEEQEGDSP
Method: as §3, §4

Human PDE4D = biological target: T3, Human PDE4D (Homo sapiens, UniProt Q08499); assay: PDE scintillation proximity enzyme assay; assay type: biochemical; conditions: geometric mean (SD, n)
T3 construct: made in house; host or cells: baculovirus-infected insect cells
T3 sequence (Q08499 whole entry): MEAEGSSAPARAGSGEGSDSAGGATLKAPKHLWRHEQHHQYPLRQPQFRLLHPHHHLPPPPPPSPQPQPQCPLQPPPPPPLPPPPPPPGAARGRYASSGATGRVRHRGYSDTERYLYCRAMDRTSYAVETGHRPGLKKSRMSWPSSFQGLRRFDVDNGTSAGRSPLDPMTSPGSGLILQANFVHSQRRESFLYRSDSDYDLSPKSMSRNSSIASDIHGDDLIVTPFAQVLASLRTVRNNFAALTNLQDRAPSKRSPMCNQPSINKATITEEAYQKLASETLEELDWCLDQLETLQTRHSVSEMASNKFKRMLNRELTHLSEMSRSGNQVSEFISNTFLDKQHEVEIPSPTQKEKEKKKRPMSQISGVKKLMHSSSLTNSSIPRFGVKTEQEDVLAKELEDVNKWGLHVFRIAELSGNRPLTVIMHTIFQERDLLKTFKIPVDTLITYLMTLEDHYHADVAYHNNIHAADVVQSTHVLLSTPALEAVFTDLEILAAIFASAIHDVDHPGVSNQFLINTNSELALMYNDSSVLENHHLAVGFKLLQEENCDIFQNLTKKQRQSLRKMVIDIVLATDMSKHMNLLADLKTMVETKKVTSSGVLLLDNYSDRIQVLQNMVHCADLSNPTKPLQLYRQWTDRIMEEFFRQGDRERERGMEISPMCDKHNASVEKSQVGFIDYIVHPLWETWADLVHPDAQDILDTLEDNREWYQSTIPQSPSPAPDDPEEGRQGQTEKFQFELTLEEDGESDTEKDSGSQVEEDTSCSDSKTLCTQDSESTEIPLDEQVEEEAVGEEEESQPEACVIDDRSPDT
Method: as §3, §4

Human PDE1B = biological target: T4, Human PDE1B (Homo sapiens, UniProt Q01064); assay: PDE scintillation proximity enzyme assay; assay type: biochemical; conditions: geometric mean (SD, n)
T4 construct: made in house; host or cells: baculovirus-infected insect cells
T4 sequence (Q01064 whole entry): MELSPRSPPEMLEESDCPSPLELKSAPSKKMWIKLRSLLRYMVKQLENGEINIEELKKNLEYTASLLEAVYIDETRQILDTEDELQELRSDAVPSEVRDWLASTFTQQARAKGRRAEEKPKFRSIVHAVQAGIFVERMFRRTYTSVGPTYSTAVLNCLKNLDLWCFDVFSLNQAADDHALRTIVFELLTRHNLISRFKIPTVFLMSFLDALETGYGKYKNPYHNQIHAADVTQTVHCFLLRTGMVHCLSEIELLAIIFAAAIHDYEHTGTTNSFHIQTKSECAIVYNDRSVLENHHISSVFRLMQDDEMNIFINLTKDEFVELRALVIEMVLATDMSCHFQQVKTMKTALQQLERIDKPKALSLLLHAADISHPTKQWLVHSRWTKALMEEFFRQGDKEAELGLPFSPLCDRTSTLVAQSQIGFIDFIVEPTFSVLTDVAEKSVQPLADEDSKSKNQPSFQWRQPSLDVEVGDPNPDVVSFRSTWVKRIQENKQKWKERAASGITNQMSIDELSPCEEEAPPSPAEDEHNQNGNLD
Method: as §3, §4

Human PDE1A = biological target: T5, Human PDE1A (Homo sapiens, UniProt P54750); assay: PDE scintillation proximity enzyme assay; assay type: biochemical; conditions: geometric mean (SD, n)
T5 construct: made in house; host or cells: baculovirus-infected insect cells
T5 sequence (P54750 whole entry): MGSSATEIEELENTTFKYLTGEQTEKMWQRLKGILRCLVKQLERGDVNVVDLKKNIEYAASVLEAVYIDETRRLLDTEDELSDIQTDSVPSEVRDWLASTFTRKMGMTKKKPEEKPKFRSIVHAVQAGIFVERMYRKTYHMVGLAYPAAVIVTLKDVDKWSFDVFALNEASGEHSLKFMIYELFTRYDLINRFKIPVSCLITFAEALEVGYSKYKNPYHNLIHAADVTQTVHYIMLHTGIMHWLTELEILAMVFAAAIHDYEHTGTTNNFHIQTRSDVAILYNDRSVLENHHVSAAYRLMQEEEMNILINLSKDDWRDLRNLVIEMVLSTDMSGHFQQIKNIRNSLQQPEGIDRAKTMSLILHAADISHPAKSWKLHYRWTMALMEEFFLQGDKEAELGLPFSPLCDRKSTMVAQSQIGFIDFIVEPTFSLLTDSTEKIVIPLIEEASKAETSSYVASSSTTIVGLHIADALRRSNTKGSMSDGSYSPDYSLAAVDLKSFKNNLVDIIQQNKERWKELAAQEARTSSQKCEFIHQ
Method: as §3, §4

Human PDE11A = biological target: T6, Human PDE11A (Homo sapiens, UniProt Q9HCR9); assay: PDE scintillation proximity enzyme assay; assay type: biochemical; conditions: geometric mean (SD, n)
T6 construct: made in house; host or cells: baculovirus-infected insect cells
T6 sequence (Q9HCR9 whole entry): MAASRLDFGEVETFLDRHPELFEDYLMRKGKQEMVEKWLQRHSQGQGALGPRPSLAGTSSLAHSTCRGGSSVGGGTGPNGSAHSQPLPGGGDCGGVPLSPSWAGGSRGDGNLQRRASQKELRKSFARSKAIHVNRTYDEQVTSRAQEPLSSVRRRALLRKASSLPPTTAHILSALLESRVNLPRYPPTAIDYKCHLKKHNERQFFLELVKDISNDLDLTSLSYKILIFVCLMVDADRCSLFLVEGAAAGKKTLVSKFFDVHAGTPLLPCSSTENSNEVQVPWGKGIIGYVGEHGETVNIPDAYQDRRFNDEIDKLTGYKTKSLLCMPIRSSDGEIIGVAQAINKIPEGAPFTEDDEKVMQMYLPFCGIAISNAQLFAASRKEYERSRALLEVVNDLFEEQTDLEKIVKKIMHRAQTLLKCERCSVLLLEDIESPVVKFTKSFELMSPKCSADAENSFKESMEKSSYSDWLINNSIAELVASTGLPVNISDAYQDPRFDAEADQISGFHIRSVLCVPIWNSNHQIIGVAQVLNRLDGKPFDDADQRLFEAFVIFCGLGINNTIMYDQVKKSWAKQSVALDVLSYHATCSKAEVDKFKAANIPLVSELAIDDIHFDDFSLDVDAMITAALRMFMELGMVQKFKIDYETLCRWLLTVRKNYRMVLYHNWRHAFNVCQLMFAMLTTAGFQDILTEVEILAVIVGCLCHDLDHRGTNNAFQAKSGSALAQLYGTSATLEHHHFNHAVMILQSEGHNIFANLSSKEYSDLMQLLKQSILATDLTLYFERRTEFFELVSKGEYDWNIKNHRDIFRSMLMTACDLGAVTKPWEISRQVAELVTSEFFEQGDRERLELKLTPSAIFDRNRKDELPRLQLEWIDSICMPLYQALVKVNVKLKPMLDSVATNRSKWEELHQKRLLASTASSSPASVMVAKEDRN
Method: as §3, §4

PDE1 = assay: Calculated target engagement from unbound drug concentration; assay type: in vivo, Rat; conditions: for % TE: 1 h, hill slope 1
[2] = 3 mg/kg twice daily oral for 21 days, high salt (4%) diet

O=c1c2nnc(C3(C4CC4)CC3)n2c2c(n1CC1CC1)CCCC2 [BTTQ, 1-[1,1′-bi(cyclopropyl)-1-yl]-5-(cyclopropylmethyl)-6,7,8,9-tetrahydro[1,2,4]triazolo[4,3-A]quinoxaline-4(5H)-one]
effect on BP ([1]; 0.03 mg/kg twice daily oral): did not show any effect | effect on HR ([1]; 0.03 mg/kg twice daily oral): did not show any effect | MAP ([1]; 0.03, 0.1, 0.3, 1, and 3 mg/kg twice daily oral, 24 h telemetry): dose-dependent decrease | heart rate ([1]; 0.03-3 mg/kg twice daily oral): dose-dependent increase | additional blood pressure lowering ([1]; BTTQ administered on top of ACE inhibitor): about 22 mmHg | lowering of blood pressure compared to the vehicle-treated group ([1]; SHR): ~36 mmHg | heart rate (Sprague Dawley rats; 1 and 3 mg/kg twice daily oral): dose-dependent increase | immediate decrease in MAP compared to the vehicle (Sprague Dawley rats; 1 and 3 mg/kg twice daily oral (both groups), within 1 h of the first dose): about 5 mmHg | time after second dose at which BP-lowering effect returned to baseline (Sprague Dawley rats; high dose group (3 mg/kg twice daily oral)): 7 h | lowering of blood pressure compared to the vehicle-treated group (Sprague Dawley rats; normal Sprague Dawley rats): about 9 mmHg | MAP compared to the vehicle-treated group (Dahl Salt Sensitive rats; [2]): profound reduction | heart rate (Dahl Salt Sensitive rats; [2]): elevation of heart rate | lowering of blood pressure compared to the vehicle-treated group (Dahl Salt Sensitive rats; Dahl salt-sensitive rats): ~24 mmHg | IC50 (Human PDE1C): 0.14 nM | IC50 (Human PDE7B): 1600 nM | IC50 (Human PDE4D): 12 µM | IC50 (Human PDE1B): 0.5 nM and 0.45 nM | IC50 (Human PDE1A): 1 nM | IC50 (Human PDE11A): 2400 nM | IC50 (PDE1; IC50 used for the target engagement calculation): 1.37 nM | % TE (PDE1; dose 0.1 (mg/kg oral)): 88.55% | % TE (PDE1; dose 0.3 (mg/kg oral)): 95.29% | % TE (PDE1; dose 1 (mg/kg oral)): 98.54% | % TE (PDE1; dose 3 (mg/kg oral)): 99.31%

From article PMC7506137, “Selective Phosphodiesterase 1 Inhibitor BTTQ Reduces Blood Pressure in Spontaneously Hypertensive and Dahl Salt Sensitive Rats: Role of Peripheral Vasodilation” (Frontiers in Physiology, 2020)
